Test results: patent US10064843B2, “Bis-amide derivative and use thereof” (University-Industry Cooperation Group of Kyung Hee …, priority 2013, dated 2018)

What was measured:
HCV replicon cells = assay: Luciferase activity in HCV replicon cells; format: cell-based; settings: Hepatitis C virus; 2 μM, 72 hours; FIG. 6; read-out: inhibition of luciferase activity of HCV
Method: Additionally, a series of compounds (WJCPA-1 to WJCPA-135) having the bis-amide structure as a parent structure in common, based on the inhibitory effect of WJCPA-126 against the PPIase activity, were synthesized and their activities were confirmed. Specifically, Huh7-rep cells were treated with each of the compounds at a concentration of 2 μM for 3 days, and the expression level of NS5A was confirmed by performing an immunoblot analysis according to a known method (FIG. 5). The 32 kinds of compounds confirmed to have excellent inhibitory effect especially against the NS5A expression from the immunoblot experiment were measured regarding their inhibitory effect against luciferase activity and the results are illustrated in FIG. 6. In the same manner as in western blot, the HCV replicon cells were treated with each of the compounds at a concentration of 2 μM and incubated for 72 hours, and the total cell lysate of the cultured cells were used for the analyses of western blot and the activity of luciferase.

CypA = biological target: T1, CypA (Homo sapiens, UniProt P62937); assay: PPIase activity of CypA, coupled chymotrypsin analysis; format: biochemical; settings: FIG. 7a; read-out: IC50 PPIase activity of CypA
T1 construct: GST (N, cleaved yes); made in house; host or cells: E. coli (pGEX-KG)
Method: Example 5: Analysis of Peptidyl-Prolyl Cis-Trans Isomerase Activity
The PPIase activity of CypA was determined according to a known method using the coupled chymotrypsin analysis.
The cis-trans isomerization was measured by absorbance at 390 nm in a spectrophotometer. Additionally, the remaining percentage of enzyme activity was measured at different concentrations of the inhibitor to calculate the 50% inhibition concentration (IC50) to the PPIase activity. Data was optimized via graphs by exporting using Graph Pad Prism 5.

T1 sequence (P62937 whole entry): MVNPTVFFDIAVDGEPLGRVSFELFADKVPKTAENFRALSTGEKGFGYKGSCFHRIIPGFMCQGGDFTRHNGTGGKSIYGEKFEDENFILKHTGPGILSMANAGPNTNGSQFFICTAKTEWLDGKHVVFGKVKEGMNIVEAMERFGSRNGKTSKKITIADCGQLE

Row | SMILES | inhibition at 2 µM (HCV replicon cells) | IC50 (CypA)
1 | Cc1ccc(C)c(C(=O)N(c2ccc(C(C)C)cc2)C(C(=O)NC2CCCCC2)c2ccc(Cl)cc2)c1 (stereo not drawn) [WJCPA30, N-[(4-chloro-phenyl)-cyclohexylcarbamoyl-methyl]-N-(4-isopropyl-phenyl)-2,5-dimethyl-benzamide] | ≤ 80% | 10.6 nM
2 | COc1ccc(CCC(=O)N(c2ccc(Br)cc2)C(C(=O)NC2CCCCC2)c2ccc([N+](=O)[O-])cc2)cc1 (stereo not drawn) [WJCPA133, N-(4-bromo-phenyl)-N-[cyclohexylcarbamoyl-(4-nitro-phenyl)-methyl]-3-(4-methoxy-phenyl)-propionamide] | – | 11.2 nM
